Marks after values point to notes of the source that are not given here.
Assays:
[1] = tested on: Rb phosphorylation and other CDK targets in keratinocytes; experiment: CDK targets in skin biopsies; type: in vivo, human
[2] = pharmacokinetics, plasma concentrations by LC-MS/MS; settings: for half-life / AUC / Cmax / Tmax: human, plasma, intravenous; for AUC / Cmax: mean
[3] = tested on: patients with advanced malignancies; experiment: phase 1 dose escalation: MAD, RP2D and dose-limiting toxicities; type: in vivo, human
[4] = coadministration with aprepitant; ref Zhang et al, 2012; cited from earlier work
[5] = tested on: Rb phosphorylation and other CDK targets in metastatic melanoma biopsies; experiment: CDK targets in paired tumour biopsies; type: in vivo, human; settings: three patients with metastatic melanoma
[6] = tested on: PHA-stimulated lymphocytes in whole blood; experiment: ex vivo lymphocyte stimulation assay; type: cell-based, human
[7] = skin biopsies post- vs pre-treatment, 2-h infusions
[8] = 2-h infusion, 29.6 mg m^−2, n=5
[9] = 2-h infusion, 41.4 mg m^−2, n=6

With CCc1cnn2c(NCc3ccc[n+]([O-])c3)cc(N3CCCC[C@H]3CCO)nc12 [dinaciclib, Dinaciclib] the “cyclin D1 levels” value [1, 7] was “decreased”, the “p27^Kip1 levels” value [1, 7] was “relatively stable” and the p53 levels [1, 7] was “increased”. For the same compound, the Ki-67 staining ([1]; skin biopsies post-treatment) was “no substantial reduction”, the “degree of changes of Rb/CDK markers” value ([1]; skin biopsies, 8-h infusions) was “overall similar to that observed after 2-h infusions” and the “CL, mean” value ([2]; 2-h infusion, 1.85 mg m^−2, n=1) was 13.6 L h^−1 m^−2. The “CL, mean” value ([2]; 2-h infusion, 3.7 mg m^−2, n=1) was 11.0 L h^−1 m^−2, the “t1/2, mean” value ([2]; 2-h infusion, 3.7 mg m^−2, n=1) was 2.84 h and the “CL, mean” value ([2]; 2-h infusion, 7.4 mg m^−2, n=1) was 7.61 L h^−1 m^−2. For the same compound, the “CL, mean” value ([2]; 2-h infusion, 14.8 mg m^−2, n=1) was 13.8 L h^−1 m^−2, the “CL, mean” value [2, 8] was 13.6 ^c L h^−1 m^−2 and the “t1/2, mean” value [2, 8] was 2.84 ^c h. The “CL, mean” value [2, 9] was 26.8 L h^−1 m^−2, the “t1/2, mean” value [2, 9] was 2.86 h and the “CL, mean” value ([2]; 2-h infusion, 50 mg m^−2, n=15) was 16.1 L h^−1 m^−2. The “CL, mean” value ([2]; 2-h infusion, 58 mg m^−2, n=4) was 18.9 L h^−1 m^−2, the “Cmax, mean” value ([2]; 8-h infusion, 7.4 mg m^−2, n=6) was 95.5 ng/mL and the “Cmax, mean” value ([2]; 8-h infusion, 14.8 mg m^−2, n=3) was 95.8 ng/mL. For the same compound, the “Cmax, mean” value ([2]; 8-h infusion, 41.4 mg m^−2, n=2) was 429 ng/mL, the “dose dependence of CL” value ([2]; based on the PK findings) was “dose-independent” and the half-life [2] was 1.4 to 3.3 h. The AUC ([2]; 1.85 mg m^−2, AUC(l), 2-h infusion, 1.85 mg m^−2, n=1) was 136 ng·h/mL, the AUC ([2]; 1.85 mg m^−2, AUC(tf), 2-h infusion, 1.85 mg m^−2, n=1) was 135 ng·h/mL and the Cmax ([2]; 1.85 mg m^−2, Cmax, 2-h infusion, 1.85 mg m^−2, n=1) was 62.5 ng/mL. For the same compound, the AUC ([2]; 7.4 mg m^−2, AUC(l), 2-h infusion, 7.4 mg m^−2, n=1) was 975 ng·h/mL, the AUC ([2]; 7.4 mg m^−2, AUC(tf), 2-h infusion, 7.4 mg m^−2, n=1) was 974 ng·h/mL and the AUC ([2]; 7.4 mg m^−2, AUC(tf), 8-h infusion, 7.4 mg m^−2, n=6) was 687 ng·h/mL. For the same compound, the AUC ([2]; 7.4 mg m^−2, AUC(tf), 24-h infusion, 7.4 mg m^−2, n=4) was 877 ng·h/mL, the Cmax ([2]; 7.4 mg m^−2, Cmax, 2-h infusion, 7.4 mg m^−2, n=1) was 353 ng/mL and the Cmax ([2]; 7.4 mg m^−2, Cmax, 24-h infusion, 7.4 mg m^−2, n=4) was 41.4 ng/mL. It also gave a Tmax ([2]; 7.4 mg m^−2, Tmax, median, 8-h infusion, 7.4 mg m^−2, n=4) of 4 h, a Tmax ([2]; 7.4 mg m^−2, Tmax, median, 24-h infusion, 7.4 mg m^−2, n=1) of 24 h and an AUC ([2]; 10.4 mg m^−2, AUC(tf), 24-h infusion, 10.4 mg m^−2, n=3) of 982 ng·h/mL. For the same compound, the Cmax ([2]; 10.4 mg m^−2, Cmax, 24-h infusion, 10.4 mg m^−2, n=3) was 51.4 ng/mL, the Tmax ([2]; 10.4 mg m^−2, Tmax, median, 24-h infusion, 10.4 mg m^−2, n=2) was 15 h and the AUC ([2]; 14.6 mg m^−2, AUC(tf), 24-h infusion, 14.6 mg m^−2, n=3) was 2590 ng·h/mL. The Cmax ([2]; 14.6 mg m^−2, Cmax, 24-h infusion, 14.6 mg m^−2, n=3) was 161 ng/mL, the Tmax ([2]; 14.6 mg m^−2, Tmax, median, 24-h infusion, 14.6 mg m^−2, n=2) was 15 h and the half-life ([2]; 14.8 mg m^−2) was 2.78 h. It also gave an AUC ([2]; 14.8 mg m^−2, AUC(l), 2-h infusion, 14.8 mg m^−2, n=1) of 1060 ng·h/mL, an AUC ([2]; 14.8 mg m^−2, AUC(tf), 2-h infusion, 14.8 mg m^−2, n=1) of 1060 ng·h/mL and an AUC ([2]; 14.8 mg m^−2, AUC(tf), 8-h infusion, 14.8 mg m^−2, n=3) of 702 ng·h/mL. The Cmax ([2]; 14.8 mg m^−2, Cmax, 2-h infusion, 14.8 mg m^−2, n=1) was 396 ng/mL, the Tmax ([2]; 14.8 mg m^−2, Tmax, median, 8-h infusion, 14.8 mg m^−2, n=3) was 4 h and the AUC ([2]; 29.6 mg m^−2, AUC(l), 2-h infusion, 29.6 mg m^−2, n=5) was 2440 ng·h/mL. For the same compound, the AUC ([2]; 29.6 mg m^−2, AUC(tf), 2-h infusion, 29.6 mg m^−2, n=5) was 2060 ng·h/mL, the AUC ([2]; 29.6 mg m^−2, AUC(tf), 8-h infusion, 29.6 mg m^−2, n=3) was 2300 ng·h/mL and the Cmax ([2]; 29.6 mg m^−2, Cmax, 2-h infusion, 29.6 mg m^−2, n=6) was 890 ng/mL. The Cmax ([2]; 29.6 mg m^−2, Cmax, 8-h infusion, 29.6 mg m^−2, n=3) was 333 ng/mL, the Tmax ([2]; 29.6 mg m^−2, Tmax, median, 8-h infusion, 29.6 mg m^−2, n=3) was 4 h and the AUC ([2]; 41.4 mg m^−2, AUC(l), 2-h infusion, 41.4 mg m^−2, n=6) was 2880 ng·h/mL. The AUC ([2]; 41.4 mg m^−2, AUC(tf), 2-h infusion, 41.4 mg m^−2, n=6) was 2860 ng·h/mL, the AUC ([2]; 41.4 mg m^−2, AUC(tf), 8-h infusion, 41.4 mg m^−2, n=2) was 3300 ng·h/mL and the Cmax ([2]; 41.4 mg m^−2, Cmax, 2-h infusion, 41.4 mg m^−2, n=6) was 1300 ng/mL. For the same compound, the Tmax ([2]; 41.4 mg m^−2, Tmax, median, 8-h infusion, 41.4 mg m^−2, n=1) was 4 h, the AUC ([2]; 50 mg m^−2, AUC(l), 2-h infusion, 50 mg m^−2, n=15) was 3940 ng·h/mL and the AUC ([2]; 50 mg m^−2, AUC(tf), 2-h infusion, 50 mg m^−2, n=15) was 3910 ng·h/mL. It also gave an AUC ([2]; 50 mg m^−2, AUC(tf), 8-h infusion, 50 mg m^−2, n=2) of 3670 ng·h/mL, a Cmax ([2]; 50 mg m^−2, Cmax, 2-h infusion, 50 mg m^−2, n=15) of 1810 ng/mL and a Cmax ([2]; 50 mg m^−2, Cmax, 8-h infusion, 50 mg m^−2, n=2) of 475 ng/mL. For the same compound, the Tmax ([2]; 50 mg m^−2, Tmax, median, 8-h infusion, 50 mg m^−2, n=2) was 8 h, the AUC ([2]; 58 mg m^−2, AUC(l), 2-h infusion, 58 mg m^−2, n=4) was 3370 ng·h/mL and the AUC ([2]; 58 mg m^−2, AUC(tf), 2-h infusion, 58 mg m^−2, n=4) was 3360 ng·h/mL. It also gave a Cmax ([2]; 58 mg m^−2, Cmax, 2-h infusion, 58 mg m^−2, n=4) of 1460 ng/mL, a Tmax ([2]; Tmax, after the initiation of the 2-h infusion, 35 patients in Part 1, across doses) of 1 to 2 h and a Tmax ([2]; Tmax, after the start of the 8-h infusion, 16 patients) of 4 to 8 h. The Tmax ([2]; Tmax, after the start of the 24-h infusion) was 6 to 24 h, the “recommended phase 2 dose (RP2D)” value ([3]; 2-h i.v. infusion every 21 days) was 50 mg m^−2 and the “maximum administered dose (MAD)” value ([3]; 2-h infusion) was 58 mg m^−2. For the same compound, the “No of subjects with DLT in cycle 1” value ([3]; 2-hour infusion, 50 mg/m2 (RP2D), 15 subjects treated) was 4 of 15, the “recommended phase 2 dose (RP2D)” value ([3]; 8-h i.v. infusion every 3 weeks) was 7.4 mg m^−2 and the “recommended phase 2 dose (RP2D) / highest safe dose” value ([3]; 24-h i.v. infusion every 3 weeks) was 10.4 mg m^−2. For the same compound, the “effect of aprepitant on dinaciclib PK parameters” value [4] was “does not significantly alter dinaciclib PK parameters”, the “expression of Rb phosphorylated at S795” value [5] was “reduced expression” and the “expression of Rb phosphorylated at T356” value [5] was “reduced expression”. The “expression of Rb phosphorylated at other sites and of total Rb” value [5] was “overall preserved expression”, the “increases in p27^Kip1 and p53 post-treatment” value [5] was “occurred in two samples” and the “dose achieving reductions to <5% BrdU incorporation” value ([6]; 2-h infusions) was no less than 7.4 mg m^−2. For the same compound, the “dose reproducibly achieving a sustained PD effect through 8 h” value ([6]; 2-h infusions) was no less than 29.6 mg m^−2, the “plasma concentration at which reductions to <5% BrdU incorporation were observed” value ([6]; 2-h infusions) was roughly 200 ng/mL and the “dose achieving suppression of lymphocyte proliferation” value ([6]; 8-h infusions) was no less than 7.4 mg m^−2. The “patients with pharmacodynamic reductions in BrdU incorporation” value ([6]; part 1, 2-h infusions) was 24 of 35 and the “patients with reduction of PHA-stimulated BrdU incorporation to <5% at at least one post-dose time point” value ([6]; part 1, of the 24 patients with reductions) was 23.
